Data taken from ChEMBL document CHEMBL1201862, “PubChem BioAssay data set” (2004).
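Values below derive from 48-hour exposures of cells grown in 96-well plates, with endpoints linearly interpolated between the two concentrations bracketing the appropriate inhibition level. GI50 marks 50% less growth.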 The source made the active and inactive calls. Cut-off read from the data, not from the text of the source: active = GI50 up to about 1.1 µM and inactive = higher.

Key:
Assay in all cases: DTP human tumour cell line panel, 48 h
NCI-H522 = test system: NCI-H522
TK-10 = test system: TK-10
MOLT-4 = test system: MOLT-4
OVCAR-4 = test system: OVCAR-4
NCI-H23 = test system: NCI-H23
ACHN = test system: ACHN
LOX IMVI = test system: LOX IMVI
HCT-116 = test system: HCT-116
HCT-15 = test system: HCT-15
SK-MEL-2 = test system: SK-MEL-2
HT-29 = test system: HT-29
SF-539 = test system: SF-539
DLD-1 = test system: DLD-1
UACC-257 = test system: UACC-257
A498 = test system: A498
OVCAR-3 = test system: OVCAR-3
SF-268 = test system: SF-268
COLO 205 = test system: COLO 205
SK-MEL-28 = test system: SK-MEL-28
KM12 = test system: KM12

SMILES	GI50 (NCI-H522)	GI50 (TK-10)	GI50 (MOLT-4)	GI50 (OVCAR-4)	GI50 (NCI-H23)	GI50 (ACHN)	GI50 (LOX IMVI)	GI50 (HCT-116)	GI50 (HCT-15)	GI50 (SK-MEL-2)	GI50 (HT-29)	GI50 (SF-539)	GI50 (DLD-1)	GI50 (UACC-257)	GI50 (A498)	GI50 (OVCAR-3)	GI50 (SF-268)	GI50 (COLO 205)	GI50 (SK-MEL-28)	GI50 (KM12)
COc1ccc(/C(Cl)=C(\C=O)c2ccc(OC)cc2)cc1	18.3 µM (inactive)	> 100 µM (inactive)	7 µM (inactive)	48.1 µM (inactive)	> 100 µM (inactive)	84.3 µM (inactive)	80 µM (inactive)	61.9 µM (inactive)	43.7 µM	> 100 µM (inactive)	> 100 µM (inactive)	> 100 µM (inactive)	33.2 µM (inactive)	72.4 µM (inactive)	> 100 µM (inactive)	64.9 µM (inactive)	> 100 µM (inactive)			
O=[N+]([O-])c1ccc(C2=Nc3ccccc3SC(c3ccccc3)C2)cc1 (stereo unspecified)	13.4 µM (inactive)	38.1 µM (inactive)	15.1 µM (inactive)	14.3 µM (inactive)		18.2 µM (inactive)	13.7 µM (inactive)	11.9 µM (inactive)	16.3 µM	18.4 µM (inactive)		21.4 µM (inactive)	18.9 µM (inactive)	26.2 µM (inactive)	22.3 µM (inactive)		24.7 µM (inactive)	17.5 µM (inactive)	21.3 µM (inactive)	17.1 µM (inactive)
N[C@@H](CSCSC[C@H](N)C(=O)O)C(=O)O	> 225 µM (inactive)		195 µM (inactive)	> 225 µM (inactive)	> 225 µM (inactive)		> 225 µM (inactive)	> 225 µM (inactive)	> 225 µM	> 225 µM (inactive)	> 225 µM (inactive)	> 225 µM (inactive)	> 225 µM (inactive)	> 225 µM (inactive)	> 225 µM (inactive)	> 225 µM (inactive)	> 225 µM (inactive)	> 225 µM (inactive)	> 225 µM (inactive)	126 µM (inactive)
N=c1c2c(=S)n(-c3ccccc3)c(=S)n(-c3ccccc3)c2nc(SCCCN2CCN(c3cccc(Cl)c3)CC2)n1-c1ccccc1	> 100 µM (inactive)	37.5 µM (inactive)	> 100 µM (inactive)	> 100 µM (inactive)	> 100 µM (inactive)	> 100 µM (inactive)	26.5 µM (inactive)		59.2 µM	62.8 µM (inactive)		> 100 µM (inactive)		> 100 µM (inactive)	50.7 µM (inactive)	> 100 µM (inactive)		> 100 µM (inactive)	> 100 µM (inactive)	> 100 µM (inactive)
CC(C)=CC(=O)OC1C2C(C)=CC(O)C(O)C2(C)C2C3(O)OCC24C(CC(=O)OC14)C(C)C3O (stereo unspecified)	0.0298 µM (active)		0.0225 µM (active)	0.0647 µM (active)	0.0611 µM (active)		0.0371 µM (active)	0.0361 µM (active)	0.476 µM	0.173 µM (active)	0.137 µM (active)	0.0466 µM (active)	0.0716 µM (active)	0.104 µM (active)	1.51 µM (inactive)	0.0339 µM (active)	0.182 µM (active)	0.778 µM (active)	0.0362 µM (active)	0.0791 µM (active)
CC1OC(O)CC(OC(=O)c2ccccc2)C1OC(=O)c1ccccc1 (stereo unspecified)	> 100 µM (inactive)	> 100 µM (inactive)	13.9 µM (inactive)	15.1 µM (inactive)	16 µM (inactive)	18.2 µM (inactive)	11.1 µM (inactive)	11.3 µM (inactive)	15.3 µM		21.6 µM (inactive)	17.5 µM (inactive)	14.3 µM (inactive)	15.3 µM (inactive)	> 100 µM (inactive)	19.1 µM (inactive)	16.2 µM (inactive)	27 µM (inactive)	16.1 µM (inactive)	39.6 µM (inactive)
CNc1ccccc1-c1nc2ccccc2c(=O)o1		> 100 µM (inactive)	> 100 µM (inactive)	> 100 µM (inactive)		> 100 µM (inactive)	> 100 µM (inactive)	> 100 µM (inactive)	> 100 µM	> 100 µM (inactive)		35 µM (inactive)	> 100 µM (inactive)	> 100 µM (inactive)			32 µM (inactive)	> 100 µM (inactive)	> 100 µM (inactive)	> 100 µM (inactive)
CC1(C)CC[C@]2(C)CC[C@]3(C)C(=CC[C@@H]4[C@@]5(C)CCC(=O)C(C)(C)[C@@H]5[C@H](O)C[C@]43C)[C@@H]2C1	17 µM (inactive)	16.5 µM (inactive)	31.5 µM (inactive)	18.1 µM (inactive)	19.5 µM (inactive)	16.9 µM (inactive)	17.1 µM (inactive)	16.3 µM (inactive)	18.6 µM	16 µM (inactive)	17 µM (inactive)	17.8 µM (inactive)		17.7 µM (inactive)	17.3 µM (inactive)	16.5 µM (inactive)	17.8 µM (inactive)	17.4 µM (inactive)	17.6 µM (inactive)	19.5 µM (inactive)
COC(=O)c1ccc(/C=C2\N=C(C)OC2=O)cc1	59 µM (inactive)	> 100 µM (inactive)	> 100 µM (inactive)	> 100 µM (inactive)	> 100 µM (inactive)	> 100 µM (inactive)	> 100 µM (inactive)	> 100 µM (inactive)	> 100 µM		> 100 µM (inactive)	> 100 µM (inactive)	> 100 µM (inactive)		> 100 µM (inactive)	> 100 µM (inactive)	> 100 µM (inactive)	> 100 µM (inactive)	> 100 µM (inactive)	> 100 µM (inactive)
CC(=O)OC/C=C\Cn1ncc(=O)[nH]c1=O	16.1 µM (inactive)		19.2 µM (inactive)		13.6 µM (inactive)	21.6 µM (inactive)	3.32 µM (inactive)		19.2 µM	18.1 µM (inactive)	14.2 µM (inactive)	18.2 µM (inactive)			16.4 µM (inactive)	28.2 µM (inactive)	18 µM (inactive)	16 µM (inactive)	21.4 µM (inactive)	17 µM (inactive)
CN1C2CCC1CC(C)(O)C2 (stereo unspecified)		> 100 µM (inactive)	> 100 µM (inactive)		> 100 µM (inactive)		> 100 µM (inactive)	> 100 µM (inactive)	> 100 µM	> 100 µM (inactive)	> 100 µM (inactive)			> 100 µM (inactive)		> 100 µM (inactive)	> 100 µM (inactive)	> 100 µM (inactive)	> 100 µM (inactive)	> 100 µM (inactive)
COC(=O)/C=C(\C)CCC1SC1(C)C (stereo unspecified)	> 100 µM (inactive)	> 100 µM (inactive)	> 100 µM (inactive)	> 100 µM (inactive)	> 100 µM (inactive)	> 100 µM (inactive)	> 100 µM (inactive)	> 100 µM (inactive)	> 100 µM	> 100 µM (inactive)	> 100 µM (inactive)	> 100 µM (inactive)	> 100 µM (inactive)	> 100 µM (inactive)	> 100 µM (inactive)		> 100 µM (inactive)	> 100 µM (inactive)	> 100 µM (inactive)	> 100 µM (inactive)
C/C(=N\O)C1CC(CC(=O)O)C1(C)C (stereo unspecified)	> 100 µM (inactive)	> 100 µM (inactive)	> 100 µM (inactive)	> 100 µM (inactive)	> 100 µM (inactive)	> 100 µM (inactive)	> 100 µM (inactive)	> 100 µM (inactive)	> 100 µM	> 100 µM (inactive)	> 100 µM (inactive)	> 100 µM (inactive)		> 100 µM (inactive)	> 100 µM (inactive)	10.2 µM (inactive)	> 100 µM (inactive)	> 100 µM (inactive)	> 100 µM (inactive)	> 100 µM (inactive)
S=C1SC(=N\c2ccccc2)/C(=N/c2ccccc2)N1c1ccccc1	> 100 µM (inactive)		> 100 µM (inactive)	8.53 µM (inactive)	> 100 µM (inactive)			83.9 µM (inactive)	> 100 µM	> 100 µM (inactive)	87.7 µM (inactive)				> 100 µM (inactive)	34.4 µM (inactive)		> 100 µM (inactive)	> 100 µM (inactive)	> 100 µM (inactive)
CCOCCOc1ccc(OCCOCC)cc1			7.71 µM (inactive)	6.04 µM (inactive)	29.9 µM (inactive)		17.9 µM (inactive)	17.2 µM (inactive)	16.9 µM	> 43 µM (inactive)	16.9 µM (inactive)	> 10 µM (inactive)	10.1 µM (inactive)	17.5 µM (inactive)	36.3 µM (inactive)	30.1 µM (inactive)	17 µM (inactive)	15.9 µM (inactive)	20.3 µM (inactive)	31.5 µM (inactive)
O=C(c1ccco1)C1CC(c2c(O)ccc3ccccc23)=NN1 (stereo unspecified)	4.2 µM (inactive)	14.3 µM (inactive)	12.1 µM (inactive)	25.4 µM (inactive)	17.1 µM (inactive)	12.5 µM (inactive)			19 µM	16.6 µM (inactive)	11.8 µM (inactive)	13.1 µM (inactive)		20.6 µM (inactive)	18.4 µM (inactive)	12.2 µM (inactive)	10.1 µM (inactive)	6.37 µM (inactive)	21 µM (inactive)	11.4 µM (inactive)
